Assay results taken from patent US8486434B2, “Medical implant containing an antioxidative substance” (Biotronik VI Patent AG, priority 2009, dated 2013).

Experiment: toxicity of isoprenoids (compatibility with the body)
Details: in concentrations of 10 μmol/l
Text: Thus, for example, lycopene and ubichinon are already toxic in concentrations of 10 μmol/l. Squalene, on the other hand, is not toxic, even in concentrations of 100 μmol/l.

With ubichinon the toxicity was “toxic”.
